Data: patent US20090197957A1, “Methods and compositions for the treatment of pain” (Nuon Therapeutics, Inc., priority 2005, published 2009)

How the values were obtained:
[1] = tested on: astrocytes in the spinal cord (GFAP); test: GFAP immunohistochemistry of lumbar spinal cord (astrocytic activation); assay type: in vivo, mice; settings: 10 days following onset of arthritis; 3,4-DAA 200 mg/kg/day, dexamethasone 0.5 mg/kg/2 days
Method: FIG. 6 is an image depicting that 3,4-DAA inhibits mechanical and thermal allodynia, and inhibits astrocytic activation in arthritic mice. Mechanical (a) and thermal (b) allodynia, and paw swelling (c) and clinical score (d) were assessed in naïve mice on the day of arthritis onset, and up to 10 days following therapy with 200 mg/kg 3,4-DAA, […] dexamethasone, or vehicle. […] Whilst 3,4-DAA therapy reduced astrocytic activation (bottom right panel) dexamethasone had no action on GFAP levels (bottom left panel). Quantification of the number of hyper-plastic astrocytes in the spinal cord 10 days following onset of arthritis was performed (f).
Upon completion of treatment, animals were sacrificed by CO2 exposure, and the lumbar spinal cord was excised, fixed (10% formalin), and embedded in paraffin. Immunohistochemistry was then performed to detect astrocytes with a rabbit-anti GFAP (glial fibrillary acidic protein) antibody (Dako Cytomation, Glostrup, Denmark). Antibody detection was performed using an ABC peroxidase method (Vector Laboratories, High Wycombe, Bucks., U.K.) (32).
Astrocytic activation has been proposed to be important for the generation of both inflammatory and neuropathic hypersensitivity [Bao et al., 2001, Neuroreport 12:3905-3908; Watkins et al., 2001, Trends Neurosci. 24:450-455]. Astrocytic activation in the spinal cord in CIA was therefore assessed. […]

[2] = tested on: collagen-induced arthritis (CIA); test: Development of collagen-induced arthritis (treatment from day of immunisation); assay type: in vivo, DBA/1 mice; settings: 200 mg/kg/day from the day of immunisation
Method: Type II collagen was purified from bovine cartilage, as described [Williams 2004, Methods Mol. Med. 98:207-216] and solubilized by stirring overnight at 4° C. in acetic acid (0.1M) or Tris buffer (0.05 M Tris, containing 0.2 M NaCl, pH 7.4). 3,4-DAA was synthesised by Angiogen Pharmaceuticals Pty. Ltd. For in vivo studies 3,4-DAA was dissolved at a maximum concentration of 10 mg/ml in 1% sodium bicarbonate by heating for 1 h at 70° C. Upon cooling, an emulsion was formed. For in vitro studies 3,4-DAA was dissolved in dimethyl sulphoxide (DMSO). 3-Hydroxy-anthranilic acid (3-HAA) was purchased from Sigma (Poole, UK) and dissolved in PBS.
Male DBA/1 mice (8-12 weeks old) were immunized intradermally at the base of the tail with bovine type II collagen (200 μg) emulsified in complete Freund's adjuvant (CFA; Difco, West Molesley, UK). Arthritis was monitored clinically using the following scoring system: 0=normal, 1=slight swelling and/or erythema, and 2=pronounced oedematous swelling. Each limb was graded, giving a maximum score of 8 per mouse. In addition, paw-swelling was measured using callipers.
In order to assess its anti-arthritic potential, 3,4-DAA was injected into DBA/1 mice (200 mg/kg/day) from the day of immunisation with type II collagen in CFA. […]

[3] = tested on: draining (inguinal) lymph node cells; test: Lymph node cell cytokine responses from treated CIA mice (72 h culture, ELISA); assay type: in vivo
Method: FIG. 4 is a graphical representation of the results of mice with established CIA being treated for 10 days with 3,4-DAA or vehicle control. Mice were then killed and draining (inguinal) lymph node cells were cultured for 72 h in the absence or presence of type II collagen.
Inguinal lymph nodes were excised from 3,4-DAA-treated and control mice. Alternatively, inguinal lymph nodes were removed from untreated arthritic mice (day 1-5 of arthritis) and 3,4-DAA was added in vitro. In both cases, a single cell suspension was prepared and LNC were cultured in RPMI 1640 containing FCS (10% v/v), 2-mercaptoethanol (20 μM), L-glutamine (1% w/v), penicillin (100 U/ml) and streptomycin (100 μg/ml) in the presence or absence of type II collagen (50 μg/ml). Secreted cytokines (IFN-γ, IL-5, and IL-10) were measured after 72 h. by ELISA. In brief, 96 well ELISA plates were coated with the respective capture antibody, blocked with bovine serum albumin (2% w/v), and then incubated with LNC culture supernatants overnight at 4° C. After washing, bound cytokines were detected using biotinylated detect antibodies. A standard curve was generated using known concentrations of the appropriate recombinant cytokine and the concentrations of cytokines present in culture supernatants were estimated by reference to the standard curve.
At the end of the experiment draining (inguinal) LNC from control and treated mice were cultured for 72 h in the presence or absence of type II collagen. IFN-γ, IL-5 and IL-10 production was measured by ELISA.

Cyclooxygenase COX-2 = biological target: T1, Cyclooxygenase COX-2 (Homo sapiens, UniProt P35354); test: 118010 Cyclooxygenase COX-2 biochemical assay (EIA quantitation of PGE2)
T1 construct: host or cells: insect Sf21
T1 sequence (P35354 18-604): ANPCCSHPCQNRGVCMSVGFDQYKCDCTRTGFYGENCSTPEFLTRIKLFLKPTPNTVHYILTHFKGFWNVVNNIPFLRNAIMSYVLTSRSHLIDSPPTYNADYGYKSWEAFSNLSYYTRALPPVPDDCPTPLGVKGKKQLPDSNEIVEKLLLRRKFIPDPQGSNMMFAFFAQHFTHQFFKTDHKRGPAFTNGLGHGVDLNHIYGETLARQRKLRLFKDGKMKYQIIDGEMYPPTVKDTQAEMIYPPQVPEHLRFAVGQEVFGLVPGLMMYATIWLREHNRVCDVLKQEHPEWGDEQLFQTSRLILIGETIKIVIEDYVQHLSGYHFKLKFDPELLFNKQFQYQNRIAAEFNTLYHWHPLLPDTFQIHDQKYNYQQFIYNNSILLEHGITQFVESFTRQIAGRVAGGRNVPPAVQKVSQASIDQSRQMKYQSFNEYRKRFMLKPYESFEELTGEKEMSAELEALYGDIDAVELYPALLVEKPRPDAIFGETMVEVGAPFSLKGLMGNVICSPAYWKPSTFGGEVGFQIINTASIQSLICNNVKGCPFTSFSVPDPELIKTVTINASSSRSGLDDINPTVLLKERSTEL
Method: Methods employed in this study have been adapted from the scientific literature to maximize reliability and reproducibility. […] Assays were performed under conditions described in the accompanying “Methods” section of this report. The literature references for each assay are in the “Literature References” section. If either of these sections were not originally requested with the accompanying report, please contact us at the number below for a printout of either of these report sections.
Biochemical assay results are presented as the percent inhibition of specific binding or activity throughout the report.

effect on the activity of the COX-2 enzyme (Cyclooxygenase COX-2): no effect
inhibition at 10 µM (Cyclooxygenase COX-2; 10 μM, n=2): 0%
SMILES: COc1ccc(/C=C/C(=O)Nc2ccccc2C(=O)O)cc1OC [Tranilast, 2-[[3-(3,4-dimethoxyphenyl)-1-oxo-2-propenyl]amino]benzoic acid]
number of activated astrocytes in the spinal cord (GFAP staining) [1]: significantly reduced
clinical score of arthritis by day 28 [2]: 1
mice that had developed arthritis by day 28 ([2]; 7 mice): 14%
differences between the groups in cytokine production on re-stimulation with collagen ([3]; 72 h culture in presence of type II collagen): not significant
IFN-γ production by lymph node cells ([3]; mice given 400 mg/kg (b205 prints 400 mg/mouse) for 10 days, 72 h culture without collagen): significantly reduced
IL-10 production by lymph node cells ([3]; mice treated for 10 days, 72 h culture): no IL-10 was detected
